This note sets out measurements from patent publication US6403643B1, “Use of 2,5-dihydroxybenzenesulfonic derivatives for the normalization of endothelial function” (Laboratories del Dr. Esteve, S.A., priority 1997, dated 2002).

The test system of one assay is endothelium. As to the kind of experiment: Endothelium-dependent vascular relaxation in normal animals and animals with vitamin D2-induced vascular aging (background statement). Conditions: normal animals and animals with vascular aging produced by high doses of vitamin D2. From the text: This effect is observed both in normal animals and in those in which vascular aging has been produced experimentally by means of the administration of high doses of vitamin D2. This activity of calcium dobesilate, of ethamsylate and of persilate may be reflected in man by effects which are therapeutically useful. […] Rosen, “The Pharmacology of Sexual Function and Dysfunction”, edited by J. Bancroft, Elsevier Sc., 1995, cages 277-287). The normalization of the endothelial function obtained with calcium dobesilate, ethamsylate and persilate can represent an entirely novel therapeutic approach to the problem of impotence (I. Saenz de Tejada et al., N. Engl. J. Med., 1989, 320, 1025-1030), both in patients with vascular disorders with various causes (diabetes, arteriosclerosis, and the like) and in patients where only a functional disorder can be detected.

For assay [1], the system named is aortas isolated from male rabbits. The experiment in a line: Relaxation of the contraction of isolated aorta maintained with 10^−6 M noradrenalin (in vitro). The note with it: aorta contraction maintained with 10^−6 M noradrenalin; concentrations between 10^−4M and 10^−11M. The format is cell-based, rabbit. How it is done: (§1) The studies were carried out by using the aortas isolated from male rabbits according to the techniques described by A. Quintana et al. (Europ. J. Pharmacol., 1978, 53, 113-116) and by the group from the University of Edinburgh (Pharmacological Experiments on Isolated Preparations, Edinburgh, Livingstone, 1970). The aortas isolated without the endothelium are prepared according to the technique described by R. Furchgott et al. (J. Cardiol. Pharmacol., 1984, 6, p. 336-p. 343).
1) Effect on the contraction of the aorta maintained with 10^−6 M noradrenalin.
Calcium dobesilate relaxes the contraction of noradrenalin in a way dependent on the concentration (between 10^−4M and 10^−11M). The maximum relaxation was 70%.

Assay [2] shares this test system. As to the kind of experiment: Effect on the basal tension in aorta arteries with and without endothelium (basal tension 2 grams). Format: cell-based, rabbit. The note with it: concentrations between 10^−8M and 10^−4. How it is done: as §1
2) Effect on the basal tension in the aorta arteries with and without endothelium (basal tension=2 grams).
Calcium dobesilate at concentrations between 10^−8M and 10^−4 relaxes, in a dose-dependent way, the aortas subjected to a basal tension of 2 grams. The maximum relaxation was 44% for the arteries with endothelium and 48% for the arteries without endothelium.

For assay [3] the test system is unchanged. As to the kind of experiment: Effect on the noradrenalin concentration/effect curve in aorta with and without endothelium. The format is cell-based, rabbit. Conditions: concentration of 10^−6M. How it is done:
as §1
3) Effect on the noradrenalin concentration/effect curve.
In arteries with the intact endothelium, calcium dobesilate at a concentration of 10^−6M inhibits a 44% the contraction obtained with 10 ^−4M noradrenalin.

Assay [4] relates to aortas originating from the treated rabbits. The experiment in a line: Protective effect on the endothelium: relaxation of noradrenalin-contracted aortas from rabbits with vitamin D2 overdose. The note with it: 10^−6M noradrenalin, calcium dobesilate between 10^−11M and 10^−5M on the artery. The format is in vivo, rabbit. How it is done:
The protective effect on the endothelium with calcium dobesilate was studied in the rabbit.
To do this, the arterial endothelium in rabbits is damaged by a daily treatment with an overdose of vitamin D2 and three groups of animals are used in the study:
II—Hypervitaminosis D2+50 mg/kg/day calcium dobesilate.
The studies are carried out with arteries originating from the treated rabbits by measuring the effect on the contraction of the aorta maintained with 10^−6M noradrenalin.
Calcium dobesilate (between 10^−11M and 10^−5M) relaxes in a dose-dependent way the contraction due to noradrenalin. The least relaxation corresponds to the hypervitaminosis D2 group (group I), whereas the maximum relaxation is obtained with the aortas of the group treated with calcium dobesilate (group II).
The maximum relaxation obtained for each group was as follows: […]

Regarding `CCNCC.O=S(=O)(O)c1cc(O)ccc1O` [ethamsylate, Diethylamine 2,5-dihydroxybenzenesulfonate], in the assay with endothelium, the “effects on the endothelium” value is reported as “facilitating endothelium-dependent vascular relaxation”.

As for “Calcium 2,5-dihydroxybenzenesulfonate [calcium dobesilate]”, the “maximum relaxation of the contraction of noradrenalin” value in assay [1] was found to be 70%. Further, the “maximum relaxation of basal tension” value in assay [2] (arteries with endothelium) came to 44%; in assay [2] (arteries without endothelium) it was 48%. The “inhibition of the contraction obtained with 10^−4M noradrenalin” value in assay [3] (arteries with the intact endothelium) is recorded as 44%. The “effect on the noradrenalin concentration/effect curve” value in assay [3] (arteries without endothelium) is given as “no modification of the curve”. Besides, the “maximum relaxation of the contraction due to noradrenalin” value in assay [4] (aortas of Group I (hypervitaminosis D2)) is on record as 52%; in assay [4] (aortas of Group II (hypervitaminosis D2 + 50 mg/kg/day calcium dobesilate)), 100%; in assay [4] (aortas of Group O (control rabbits)), 69%. For the same molecule, the “effects on the endothelium” value in the assay with endothelium is “facilitating endothelium-dependent vascular relaxation”.

Consider `CCNCC.CCNCC.O=S(=O)(O)c1cc(O)c(S(=O)(=O)O)cc1O` [persilate, Bis(diethylamine) 2,5-dihydroxybenzene-1,4-disulfonate], for which, in the assay on endothelium, the “effects on the endothelium” value is “facilitating endothelium-dependent vascular relaxation”.
